From patent US11680056B2, “MK2 inhibitors and uses thereof” (Xinthera, Inc., priority 2021, dated 2023)
Read-outs that look alike come from different tables or passages of the source.

Legend:
[1] = molecular target: p38a/MK2 (Homo sapiens (Human), UniProt P49137+Q16539); test: p38a/MK2 biochemical assay: activation of MK2 by p38, FITC-HSP27 peptide phosphorylation (IMAP FP); conditions: 10-point 1:3 dilution, 60 pM active p38a, 1 nM inactive MK2, 10 μM ATP, 2 h incubation
[2] = molecular target: p38a/PRAK (Homo sapiens (Human), UniProt Q16539); test: p38a/PRAK biochemical assay: activation of PRAK by p38, FITC-HSP27 peptide phosphorylation (IMAP FP); conditions: 10-point 1:3 dilution, top dose 300 μM, 60 pM active p38a, 1 nM inactive PRAK, 10 μM ATP, 2 h incubation; for IC50: read-out: p38a/PRAK Enzyme pIC50 (converted)
Summary of the method: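 GST-tagged MK2 (F46–H400) and PRAK (M1–Q471), expressed in E. coli, activated by p38 and phosphorylate FITC-HSP27 peptide over 2 h with compound; readout by IMAP fluorescence polarisation (ex 485/em 528 nm). Ten-point 1:3 dilutions, top dose 1 μM for MK2 and 300 μM for PRAK. IC50 after vehicle normalisation; selectivity = IC50(PRAK)/IC50(MK2).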

[3] = top dose 1 μM, read-out: p38a/MK2 (1 μM) Enzyme pIC50 (converted)
[4] = top dose 10 μM, read-out: p38a/MK2 (10 μM) Enzyme pIC50 (converted)

p38a/PRAK, sequence (Q16539 whole entry): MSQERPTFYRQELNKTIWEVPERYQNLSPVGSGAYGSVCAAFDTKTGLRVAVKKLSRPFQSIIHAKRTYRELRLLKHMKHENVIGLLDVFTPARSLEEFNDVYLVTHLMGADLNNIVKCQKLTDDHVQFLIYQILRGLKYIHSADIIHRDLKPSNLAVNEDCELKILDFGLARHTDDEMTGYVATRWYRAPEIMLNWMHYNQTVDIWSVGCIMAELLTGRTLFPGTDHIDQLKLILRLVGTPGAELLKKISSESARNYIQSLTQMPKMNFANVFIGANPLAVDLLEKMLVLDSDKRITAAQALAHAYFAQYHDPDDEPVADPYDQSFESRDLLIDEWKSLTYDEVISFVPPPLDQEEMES
p38a/MK2, sequence (P49137 46-400): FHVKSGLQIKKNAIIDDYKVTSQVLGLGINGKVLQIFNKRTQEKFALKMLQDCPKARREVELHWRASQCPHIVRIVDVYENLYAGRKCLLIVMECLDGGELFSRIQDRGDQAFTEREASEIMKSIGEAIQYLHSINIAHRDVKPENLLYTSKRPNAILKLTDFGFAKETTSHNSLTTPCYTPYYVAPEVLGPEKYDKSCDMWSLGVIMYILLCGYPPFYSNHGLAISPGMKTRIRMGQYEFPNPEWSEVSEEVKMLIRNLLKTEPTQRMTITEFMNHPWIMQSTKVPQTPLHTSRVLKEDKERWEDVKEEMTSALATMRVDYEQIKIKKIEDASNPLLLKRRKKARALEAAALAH
p38a/MK2, sequence (Q16539 whole entry): as the sequence (Q16539 whole entry) above

Compound | IC50 [1, 3] [nM] | IC50 [2] [nM] | other results
[2H]C([2H])(Oc1cc(C)n(-c2c(C)cnc(-c3ccnc(CC4(O)CC4)n3)c2F)c(=O)c1Cl)c1ncc(F)cc1F (single isomer, unassigned) [Example 61B, rel-3-chloro-4-((3,5-difluoropyridin-2-yl)methoxy-d2)-3′-fluoro-2′-(2-((1-hydroxycyclopropyl)methyl)pyrimidin-4-yl)-5′,6-dimethyl-2H-[1,4′-bipyridin]-2-one] | 3.16 | 631 | 
Cc1cnc(-c2cccc(C(C)(C)O)[n+]2[O-])c(F)c1-n1c(C)cc(OCc2ncc(F)cc2F)c(Cl)c1=O (single isomer, unassigned) [Example 62B, rel-3-chloro-4-((3,5-difluoropyridin-2-yl)methoxy)-3′-fluoro-6″-(2-hydroxypropan-2-yl)-5′,6-dimethyl-2-oxo-2H-[1,4′:2′,2″-terpyridine] 1″-oxide] | > 100 | > 316000 | 
[2H]C([2H])(Oc1cc(C)n(-c2cc(-c3ccnc(C(C)(C)O)c3F)ncc2C)c(=O)c1Cl)c1ncc(F)cc1F (single isomer, unassigned) [Example 64A, rel-3-chloro-4-[(3,5-difluoropyridin-2-yl)(2H2)methoxy]-1-[3′-fluoro-2′-(2-hydroxypropan-2-yl)-5-methyl-[2,4′-bipyridin]-4-yl]-6-methylpyridin-2-one] | 2 | 2000 | 
[2H]C([2H])(Oc1cc(C)n(-c2cc(-c3ccnc(C(C)(C)O)c3F)ncc2C)c(=O)c1Cl)c1ncc(F)cc1F (single isomer, unassigned) [Example 64B, rel-3-chloro-4-[(3,5-difluoropyridin-2-yl)(2H2)methoxy]-1-[3′-fluoro-2′-(2-hydroxypropan-2-yl)-5-methyl-[2,4′-bipyridin]-4-yl]-6-methylpyridin-2-one] | > 100 | > 316000 | 
[2H]C([2H])(Oc1cc(C)n(-c2c(C)cnc(-c3ccnc(C(C)(C)O)c3F)c2F)c(=O)c1Cl)c1ncc(F)cc1F (single isomer, unassigned) [Example 65B, rel-3-chloro-1-[3,3′-difluoro-2′-(2-hydroxypropan-2-yl)-5-methyl-[2,4′-bipyridin]-4-yl]-4-[(3,5-difluoropyridin-2-yl)(2H2)methoxy]-6-methylpyridin-2-one] | > 100 | 79400 | 
[2H]C([2H])(Oc1cc(C)n(-c2c(C)cnc(-c3ccnc(C(O)(C([2H])([2H])[2H])C([2H])([2H])[2H])n3)c2F)c(=O)c1Cl)c1ncc(F)cc1F (single isomer, unassigned) [Example 67B, rel-3-chloro-4-((3,5-difluoropyridin-2-yl)methoxy-d2)-3′-fluoro-2′-(2-(2-hydroxypropan-2-yl-1,1,1,3,3,3-d6)pyrimidin-4-yl)-5′,6-dimethyl-2H-[1,4′-bipyridin]-2-one] | 79.4 | 31600 | 
[2H]C([2H])(Oc1cc(C)n(-c2c(C)cnc(-c3cccc(C(C)(C)O)[n+]3[O-])c2F)c(=O)c1Cl)c1ncc(F)cc1F (single isomer, unassigned) [Example 68B, rel-4′-{3-chloro-4-[(3,5-difluoropyridin-2-yl) (2H2)methoxy]-6-methyl-2-oxopyridin-1-yl}-3′-fluoro-6-(2-hydroxypropan-2-yl)-5′-methyl-[2,2′-bipyridin]-1-ium-1-olate] | 0.2 | 398 | 
Cc1cnc(-c2cccc([C@@](C)(O)CO)n2)cc1-n1c(C)cc(OCc2ncc(F)cc2F)c(Cl)c1=O (stereo in doubt) [Example 36A, rel-3-chloro-4-[(3,5-difluoropyridin-2-yl)methoxy]-2′-[6-(1,2-dihydroxypropan-2-yl)pyridin-2-yl]-5′,6-dimethyl-[1,4′-bipyridin]-2-one] |  |  | p38a/MK2 (1 μM) Enzyme pIC50 ([1]; top dose 1 μM): 8.3; p38a/PRAK Enzyme pIC50 [2]: 5.3
Cc1cnc(-c2ccnc(C(C)(C)O)n2)cc1-c1c(C)cc(OCc2ncc(F)cc2F)c(Cl)c1F [Example 1, 2-[4-(4-{3-chloro-4-[(3,5-difluoropyridin-2-yl)methoxy]-2-fluoro-6-methylphenyl}-5-methylpyridin-2-yl)pyrimidin-2-yl]propan-2-ol] |  | > 316000 | p38a/MK2 (10 μM) Enzyme pIC50 ([1]; top dose 10 μM): 5.2
Cc1sc(-c2ccnc(C(C)(C)O)n2)nc1-n1c(C)cc(OCc2ncc(F)cc2F)c(Cl)c1=O [Example 17, 3-chloro-4-[(3,5-difluoropyridin-2-yl)methoxy]-1-{2-[2-(2-hydroxypropan-2-yl)pyrimidin-4-yl]-5-methyl-1,3-thiazol-4-yl}-6-methylpyridin-2-one] |  | 39800 | IC50 [1, 4]: 2510 nM
Cc1cnnc(COc2cc(C)n(-c3cc(-c4ccnc(C(C)(C)O)n4)ncc3C)c(=O)c2Cl)c1 [Example 28A, rel-3-chloro-2′-[2-(2-hydroxypropan-2-yl)pyrimidin-4-yl]-5′,6-dimethyl-4-[(5-methylpyridazin-3-yl)methoxy]-[1,4′-bipyridin]-2-one] |  | > 316000 | IC50 [1, 4]: 3980 nM
[2H]C([2H])(Oc1cc(C)n(-c2c(C)cnc(-n3ccc(C(C)(C)O)n3)c2F)c(=O)c1Cl)c1ncc(F)cc1F [Example 58A, rel-3-chloro-4-[(3,5-difluoropyridin-2-yl)(2H2)methoxy]-3′-fluoro-2′-[3-(2-hydroxypropan-2-yl)pyrazol-1-yl]-5′,6-dimethyl-[1,4′-bipyridin]-2-one] | 1.26 | 1000 | 

Continued, in another order:

IC50 [1, 3] [nM] | IC50 [2] [nM] | Compound | other results
1.58 | 794 | Cc1cnc(-c2cccc(C(C)(C)O)[n+]2[O-])c(F)c1-n1c(C)cc(OCc2ncc(F)cc2F)c(Cl)c1=O (single isomer, unassigned) [Example 62A, rel-3-chloro-4-((3,5-difluoropyridin-2-yl)methoxy)-3′-fluoro-6″-(2-hydroxypropan-2-yl)-5′,6-dimethyl-2-oxo-2H-[1,4′:2′,2″-terpyridine] 1″-oxide] | 
> 100 | > 316000 | Cc1cnc(-c2cccc(C(C)(C)O)n2)c(F)c1-n1c(C)cc(OCc2ncc(F)cc2F)c(Cl)c1=O (single isomer, unassigned) [Example 63A, rel-3-chloro-4-[(3,5-difluoropyridin-2-yl)methoxy]-1-[3-fluoro-6′-(2-hydroxypropan-2-yl)-5-methyl-[2,2′-bipyridin]-4-yl]-6-methylpyridin-2-one] | 
0.316 | 316 | Cc1cnc(-c2cccc(C(C)(C)O)n2)c(F)c1-n1c(C)cc(OCc2ncc(F)cc2F)c(Cl)c1=O (single isomer, unassigned) [Example 63B, rel-3-chloro-4-[(3,5-difluoropyridin-2-yl)methoxy]-1-[3-fluoro-6′-(2-hydroxypropan-2-yl)-5-methyl-[2,2′-bipyridin]-4-yl]-6-methylpyridin-2-one] | 
3.98 | 200 | [2H]C([2H])(Oc1cc(C)n(-c2c(C)cnc(-c3ccnc(C(C)(C)O)c3F)c2F)c(=O)c1Cl)c1ncc(F)cc1F (single isomer, unassigned) [Example 65A, rel-3-chloro-1-[3,3′-difluoro-2′-(2-hydroxypropan-2-yl)-5-methyl-[2,4′-bipyridin]-4-yl]-4-[(3,5-difluoropyridin-2-yl)(2H2)methoxy]-6-methylpyridin-2-one] | 
> 100 | > 316000 | [2H]C([2H])([2H])C(O)(c1nccc(-c2ncc(C)c(-n3c(C)cc(OCc4ncc(F)cc4F)c(Cl)c3=O)c2F)n1)C([2H])([2H])[2H] (single isomer, unassigned) [Example 66A, rel-3-chloro-4-((3,5-difluoropyridin-2-yl)methoxy)-3′-fluoro-2′-(2-(2-hydroxypropan-2-yl-1,1,1,3,3,3-d6)pyrimidin-4-yl)-5′,6-dimethyl-2H-[1,4′-bipyridin]-2-one] | 
6.31 | 1000 | [2H]C([2H])([2H])C(O)(c1nccc(-c2ncc(C)c(-n3c(C)cc(OCc4ncc(F)cc4F)c(Cl)c3=O)c2F)n1)C([2H])([2H])[2H] (single isomer, unassigned) [Example 66B, rel-3-chloro-4-((3,5-difluoropyridin-2-yl)methoxy)-3′-fluoro-2′-(2-(2-hydroxypropan-2-yl-1,1,1,3,3,3-d6)pyrimidin-4-yl)-5′,6-dimethyl-2H-[1,4′-bipyridin]-2-one] | 
1.58 | 316 | [2H]C([2H])(Oc1cc(C)n(-c2c(C)cnc(-c3ccnc(C(O)(C([2H])([2H])[2H])C([2H])([2H])[2H])n3)c2F)c(=O)c1Cl)c1ncc(F)cc1F (single isomer, unassigned) [Example 67A, rel-3-chloro-4-((3,5-difluoropyridin-2-yl)methoxy-d2)-3′-fluoro-2′-(2-(2-hydroxypropan-2-yl-1,1,1,3,3,3-d6)pyrimidin-4-yl)-5′,6-dimethyl-2H-[1,4′-bipyridin]-2-one] | 
25.1 | 6310 | Cc1cnc(-n2ccc(C(=O)NC3CC3)n2)cc1-n1c(C)cc(OCc2ncc(F)cc2F)c(Cl)c1=O [Example 44A, rel-1-{3-chloro-4-[(3,5-difluoropyridin-2-yl)methoxy]-5′,6-dimethyl-2-oxo-[1,4′-bipyridin]-2′-yl}-N-cyclopropylpyrazole-3-carboxamide] | 
